According to US20080103045A1, “Preparation For Eradicating Algae And Microorganisms In Aqueous Environment” (LIFETECH S.R.O., priority 2005, published 2008):

What was measured:
Conditions in all cases: effective concentration of copper cations
Mycrocystis incerta = system: Mycrocystis incerta
Chlorella kessleri = system: Chlorella kessleri
Anabaena sp. = system: Anabaena sp.
Raphidocelis subcapitata = system: Raphidocelis subcapitata
[1] = system: Synechococcus leopoliensis
Scenedesmus quadricauda = system: Scenedesmus quadricauda

O=S(=O)([O-])[O-].[Cu+2] [copper sulfate]
EC50 (mg/l Cu(II)) (Mycrocystis incerta): 1.26 mg/l Cu(II)
EC50 (mg/l Cu(II)) (Chlorella kessleri): 1.14 mg/l Cu(II)
EC50 (mg/l Cu(II)) (Anabaena sp.): 0.50 mg/l Cu(II)
EC50 (mg/l Cu(II)) (Raphidocelis subcapitata): 1.27 mg/l Cu(II)
EC50 (mg/l Cu(II)) [1]: 1.26 mg/l Cu(II)
EC50 (mg/l Cu(II)) (Scenedesmus quadricauda): 1.15 mg/l Cu(II)
